Assay results taken from ChEMBL document CHEMBL1129789, “Dopamine D3 and D4 receptor antagonists: synthesis and structure--activity relationships of (S)-(+)-N-(1-Benzyl-3-pyrrolidinyl)-5-chloro-4- [(cyclopropylcarbonyl) amino]-2-methoxybenzamide (YM-43611) and related compounds” (J Med Chem, 1996).

How the values were obtained:
D(4) dopamine receptor = target: T1, D(4) dopamine receptor (Homo sapiens, UniProt P21917); experiment: biochemical
T1 sequence (P21917 whole entry): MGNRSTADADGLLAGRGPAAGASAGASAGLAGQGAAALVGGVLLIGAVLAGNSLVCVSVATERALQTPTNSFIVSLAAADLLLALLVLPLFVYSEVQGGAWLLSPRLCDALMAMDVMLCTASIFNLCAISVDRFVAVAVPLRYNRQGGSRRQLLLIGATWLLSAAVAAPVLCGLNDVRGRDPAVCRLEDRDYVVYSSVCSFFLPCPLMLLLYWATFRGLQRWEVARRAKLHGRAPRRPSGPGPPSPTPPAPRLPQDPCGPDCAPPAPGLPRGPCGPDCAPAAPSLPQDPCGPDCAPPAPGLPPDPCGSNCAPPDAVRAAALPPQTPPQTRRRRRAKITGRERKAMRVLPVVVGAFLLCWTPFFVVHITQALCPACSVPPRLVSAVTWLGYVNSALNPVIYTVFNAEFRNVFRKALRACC

D(3) dopamine receptor = D(3) dopamine receptor (Rattus norvegicus, UniProt P19020); experiment: biochemical
Sequence of D(3) dopamine receptor (P19020 whole entry): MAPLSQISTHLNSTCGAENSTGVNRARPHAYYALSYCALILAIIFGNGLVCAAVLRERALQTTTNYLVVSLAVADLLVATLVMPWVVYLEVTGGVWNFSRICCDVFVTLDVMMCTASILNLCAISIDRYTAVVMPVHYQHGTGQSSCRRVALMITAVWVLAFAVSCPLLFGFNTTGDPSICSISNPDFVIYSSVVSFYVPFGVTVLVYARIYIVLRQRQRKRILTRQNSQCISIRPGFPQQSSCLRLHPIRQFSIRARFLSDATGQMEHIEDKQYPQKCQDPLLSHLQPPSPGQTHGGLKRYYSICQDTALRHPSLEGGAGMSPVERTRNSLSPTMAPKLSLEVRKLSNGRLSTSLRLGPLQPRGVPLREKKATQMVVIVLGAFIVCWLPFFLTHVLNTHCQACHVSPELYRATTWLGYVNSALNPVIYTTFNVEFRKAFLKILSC
Description: Binding affinity to rat Dopamine receptor D3 expressed in CHO cells was determined using [125 I] iodosulpride as radioligand

Mus musculus [1] = experiment: Compound was tested for inhibition of Apomorphine induced climbing in Mice on subcutaneous administration; format: functional; conditions: sc
Adrenergic receptor beta = Adrenergic receptor beta (Rattus norvegicus, UniProt P18090+P10608+P26255); experiment: Compound was tested for the binding affinity against rat cortical Beta adrenergic receptor by Radio ligand [3H]dihydroalprenolol binding assay.; format: protein assay
Mus musculus [2] = organism: Mus musculus; experiment: Compound was tested for inhibition of Apomorphine induced climbing in Mice; format: functional
Mus musculus [3] = experiment: Inhibition of Apomorphine induced climbing in mice administered sc; format: functional

Structure (SMILES) | Ki (D(4) dopamine receptor) | Ki (D(3) dopamine receptor) | Ki (Adrenergic receptor beta) | ED50 (Mus musculus [1]) | ED50 (Mus musculus [2]) | ED50 (Mus musculus [3])
COc1cc(NC(=O)C2CC2)c(Cl)cc1C(=O)N[C@H]1CCN(CC2CCCCC2)C1 | 3.3 nM | 3.7 nM | – | – | – | –
COc1cc(NC(=O)C(C)C)c(Cl)cc1C(=O)N[C@H]1CCN(Cc2ccccc2)C1 | 3 nM | 15 nM | – | – | – | –
COc1cc(N)c(Cl)cc1C(=O)N[C@@H]1CCN(Cc2ccccc2)C1 | – | 1.9 nM | – | – | – | –
COc1cc(NC(=O)C2CC2)c(Cl)cc1C(=O)N[C@H]1CCN(C2CCCCCC2)C1 | 2.7 nM | 1.5 nM | – | – | – | –
COc1cc(NC(=O)c2ccccc2)c(Cl)cc1C(=O)N[C@H]1CCN(Cc2ccccc2)C1 | 87 nM | 200 nM | – | – | – | –
COc1cc(NC(=O)C2CC2)c(Cl)cc1C(=O)N[C@H]1CCN(C2C3CC4CC(C3)CC2C4)C1 (stereo partly drawn) | 4.4 nM | 1.7 nM | – | > 10 mg/kg | – | –
COc1cc(NC(=O)C2CC2)c(Cl)cc1C(=O)N[C@H]1CCN(C2CCCCC2)C1 | 2.1 nM | 4.4 nM | – | 1.4 mg/kg | – | –
C=CC(=O)Nc1cc(OC)c(C(=O)N[C@H]2CCN(Cc3ccccc3)C2)cc1Cl | 1.3 nM | 4.7 nM | – | – | – | –
COc1cc(NC(=O)C(F)(F)F)c(Cl)cc1C(=O)N[C@H]1CCN(Cc2ccccc2)C1 | 1.9 nM | 5.1 nM | – | – | – | –
CNc1cc(OC)c(C(=O)N[C@H]2CCN(Cc3ccccc3)[C@H]2C)cc1Cl [NEMONAPRIDE] | – | – | – | 0.012 mg/kg | – | –
CNc1cc(OC)c(C(=O)N[C@H]2CCN(C3C4CCCC3CCC4)C2)cc1Cl (stereo partly drawn) | 0.67 nM | 0.24 nM | – | – | – | –
O=C(CCCN1CCC(O)(c2ccc(Cl)cc2)CC1)c1ccc(F)cc1 [HALOPERIDOL] | – | – | > 10000 nM | – | 0.041 mg/kg | –
COc1cc(NC(=O)C2CC2)c(Cl)cc1C(=O)N[C@H]1CCNC1 | 2200 nM | 3000 nM | – | > 30 mg/kg | – | –
COc1cc(N)c(Cl)cc1C(=O)N[C@H]1CCN(Cc2ccccc2)C1 | – | 0.58 nM | – | – | – | 0.071 mg/kg
COc1cc(NC(=O)C2CC2)c(Cl)cc1C(=O)N[C@H]1CCN(C2C3CCCC2CCC3)C1 (stereo partly drawn) | 3.8 nM | 2.2 nM | – | > 10 mg/kg | – | –
CN1CCN(C2=Nc3cc(Cl)ccc3Nc3ccccc32)CC1 [CLOZAPINE] | – | – | – | – | 6.8 mg/kg | –

Second part, led by results:

Ki (D(4) dopamine receptor) | Ki (D(3) dopamine receptor) | Ki (Adrenergic receptor beta) | Structure (SMILES) | ED50 (Mus musculus [1]) | ED50 (Mus musculus [2]) | ED50 (Mus musculus [3])
18 nM | 150 nM | – | COc1cc(NC(=O)C2CCCC2)c(Cl)cc1C(=O)N[C@@H]1CCN(Cc2ccccc2)C1 | – | – | –
7 nM | 100 nM | – | COc1cc(NC(=O)C2CCC2)c(Cl)cc1C(=O)N[C@@H]1CCN(Cc2ccccc2)C1 | – | – | –
3.4 nM | 33 nM | – | COc1cc(NC(=O)C2CC2)c(Cl)cc1C(=O)N[C@H]1CCN(CCc2ccccc2)C1 | – | – | –
20 nM | 55 nM | – | COc1cc(NC(=O)C2CCCC2)c(Cl)cc1C(=O)N[C@H]1CCN(Cc2ccccc2)C1 | 0.28 mg/kg | – | –
1.5 nM | 5.9 nM | – | CCC(=O)Nc1cc(OC)c(C(=O)N[C@H]2CCN(Cc3ccccc3)C2)cc1Cl | 0.31 mg/kg | – | –
5.2 nM | 36 nM | – | COc1cc(NC(=O)C2CCC2)c(Cl)cc1C(=O)N[C@H]1CCN(Cc2ccccc2)C1 | 0.14 mg/kg | – | –
5.6 nM | 60 nM | – | COc1cc(NC(=O)C2CC2)c(Cl)cc1C(=O)N[C@@H]1CCN(Cc2ccccc2)C1 | 0.45 mg/kg | – | –
110 nM | 200 nM | – | COc1cc(NC(=O)C2CCCCC2)c(Cl)cc1C(=O)N[C@H]1CCN(Cc2ccccc2)C1 | – | – | –
